What all share (format): biochemical
In one assay the target is T1, Pim-1 (Homo sapiens, UniProt P11309).
T1 construct: purchased Invitrogen PV3503
Description: Pim-1 kinase assay (Pim enzyme assays, Example A). To be noted: 1 mM ATP; read-out: Pim1 IC50.

The target in assay [1] is T2, Pim2 (Homo sapiens, UniProt Q9P1W9).
T2 construct: purchased Invitrogen PV3649
The experiment in a line: Pim-2 kinase assay (Pim enzyme assays, Example A). To be noted: 1 mM ATP; read-out: Pim2 IC50. Summed up: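 TR-FRET assay with 1 nM enzyme, 0.05 μM fluorescein-CREBtide and 1 mM ATP in Tris pH 7.5 buffer with MgCl2, DTT, BSA and Tween-20, run 2 h at 25° C. Stopped with EDTA and Tb-labelled anti-CREB pSer133 antibody, then read after 30 min at room temperature.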

The target in another assay is T3, Pim-3 (Homo sapiens, UniProt Q86V86).
T3 construct: purchased Millipore 14-738
The experiment in a line: Pim-3 kinase assay (Pim enzyme assays, Example A). To be noted: 1 mM ATP; read-out: Pim3 IC50.

Assay [2] concerns the target T2, Pim2. Description: Pim2 assay analogous to Example A performed under Km ATP conditions. To be noted: Km ATP conditions rather than 1 mM ATP. On the procedure: Pim-2 kinase assay—20 μL reactions were run in white 384 well polystyrene plates dotted with 0.8 μL compound/DMSO in the assay buffer (50 mM Tris, pH 7.5, 0.01% Tween-20, 5 mM mgCl2, 0.01% BSA, 5 mM DTT), containing 0.05 μM Fluorescein-labeled CREBtide peptide substrate (Invitrogen PV3508), 1 mM ATP, and 1 nM enzyme (Invitrogen PV3649) for 2 h at 25° C. Reactions were stopped by addition of 10 μL TR-FRET Dilution Buffer (Invitrogen PV3574) with 30 mM EDTA and 1.5 nM LanthaScreen Tb-CREB pSer133 antibody (Invitrogen PV3566). After 30 min. incubation at room temperature, plates were read on a PHERAstar FS plate reader (BMG Labtech).
Although the above in vitro assays are conducted at 1 mM ATP compounds can also be evaluated for potency and in vitro activity against PIM targets utilizing Km conditions, where the concentration of ATP is set to the Km value and the assay is more sensitive to PIM inhibition activity.

Molecules are shown by their SMILES.

T2 sequence (Q9P1W9 whole entry): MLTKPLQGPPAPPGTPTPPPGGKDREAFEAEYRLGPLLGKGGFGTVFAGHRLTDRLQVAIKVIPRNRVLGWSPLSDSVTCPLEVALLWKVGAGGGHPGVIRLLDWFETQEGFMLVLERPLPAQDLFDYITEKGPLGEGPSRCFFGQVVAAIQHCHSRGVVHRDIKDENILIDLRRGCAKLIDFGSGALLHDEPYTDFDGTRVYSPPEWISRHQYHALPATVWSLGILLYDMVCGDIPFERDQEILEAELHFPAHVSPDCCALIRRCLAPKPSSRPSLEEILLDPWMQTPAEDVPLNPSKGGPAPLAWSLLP
T1 sequence (P11309 whole entry): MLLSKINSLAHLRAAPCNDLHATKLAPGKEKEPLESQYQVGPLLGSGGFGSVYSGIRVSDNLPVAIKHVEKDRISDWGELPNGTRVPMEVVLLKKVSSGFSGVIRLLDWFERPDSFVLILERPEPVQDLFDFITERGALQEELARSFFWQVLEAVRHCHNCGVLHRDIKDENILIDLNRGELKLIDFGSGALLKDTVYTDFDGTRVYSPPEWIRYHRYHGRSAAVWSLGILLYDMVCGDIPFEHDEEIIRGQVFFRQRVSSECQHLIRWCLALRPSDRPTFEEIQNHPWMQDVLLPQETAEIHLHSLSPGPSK

Broadly, the IC50 is the concentration that inhibits the measured activity by half. In the case of `CCc1ccc2cc(N)c(C(=O)Nc3cnc4c(c3N3CCC[C@H](N)C3)CCC4O)nc2c1` (single isomer, unassigned) [22 isomer 1], the IC50 at Pim-1 was above 40 nM; at Pim2 [1], above 2000 nM; on Pim-3, above 40 nM; at Pim2 [2], 100 to 1000 nM.
`NC(=O)c1ccccc1-c1ccc2cc(N)c(C(=O)Nc3cnccc3N3CCC[C@H](N)C3)nc2c1` [Example 6, 3-Amino-7-[2-(aminocarbonyl)phenyl]-N-{4-[(3S)-3-aminopiperidin-1-yl]pyridin-3-yl}quinoline-2-carboxamide]: the IC50 on Pim-1 is above 40 nM; on Pim2 [1], above 2000 nM; at Pim-3 it was above 40 nM; on Pim2 [2] it was below 100 nM.
Consider `COC(=O)N[C@@H]1[C@H](N)CN(c2ccncc2NC(=O)c2nc3cc(C4CCN(C)CC4)ccc3cc2N)C[C@@H]1C` [Example 62, Methyl {(3R,4S,5S)-3-amino-1-[3-({[3-amino-7-(1-methylpiperidin-4-yl)quinolin-2-yl]carbonyl}amino)pyridin-4-yl]-5-methylpiperidin-4-yl}carbamate], for which the IC50 is at most 100 nM on Pim-1, 1000 to 10000 nM on Pim2 [1] and at most 100 nM at Pim-3.

Values taken from US9278950B2, “Bicyclic aromatic carboxamide compounds useful as Pim kinase inhibitors” (Incyte Corporation, priority 2013, dated 2016).
